Measurements reported in the NIST ThermoML archive (doi:10.1016/j.jct.2013.12.025).

Assay: refractive index (Na D-line) (dimensionless); xn = mol fraction of the nth substance listed
Settings: 101 kPa, Liquid, Standard Abbe refractometry

C=C[Si](C)(C)O[Si](C)(C)C=C [1,3-diethenyl-1,1,3,3-tetramethyldisiloxane] + Fc1ccccc1
refractive index
Settings | 283.15 K | 288.15 K | 293.15 K | 298.15 K | 303.15 K
x1 = 0.05 | 1.46591 | 1.46302 | 1.4601 | 1.45724 | 1.45427
x1 = 0.1 | 1.46088 | 1.45799 | 1.4551 | 1.45222 | 1.44927
x1 = 0.15 | 1.45637 | 1.45349 | 1.45063 | 1.44775 | 1.44482
x1 = 0.1993 | 1.45237 | 1.44949 | 1.44664 | 1.44378 | 1.44083
x1 = 0.25 | 1.44858 | 1.44572 | 1.44288 | 1.44002 | 1.43708
x1 = 0.2999 | 1.44521 | 1.44238 | 1.43954 | 1.43671 | 1.43382
x1 = 0.35 | 1.44212 | 1.43928 | 1.43649 | 1.43366 | 1.43075
x1 = 0.4 | 1.43929 | 1.43648 | 1.43368 | 1.43086 | 1.42798
x1 = 0.45 | 1.43671 | 1.4339 | 1.43109 | 1.42829 | 1.42546
x1 = 0.5 | 1.43427 | 1.43147 | 1.42871 | 1.42592 | 1.42309
x1 = 0.5501 | 1.43205 | 1.42925 | 1.42651 | 1.42374 | 1.42092
x1 = 0.6 | 1.42996 | 1.42721 | 1.42446 | 1.42171 | 1.41891
x1 = 0.6501 | 1.42804 | 1.4253 | 1.42257 | 1.41982 | 1.41705
x1 = 0.7 | 1.42627 | 1.42353 | 1.4208 | 1.41808 | 1.41532
x1 = 0.7501 | 1.42458 | 1.42185 | 1.41913 | 1.41642 | 1.41369
x1 = 0.8 | 1.42302 | 1.42031 | 1.41762 | 1.41493 | 1.41219
x1 = 0.85 | 1.42152 | 1.41883 | 1.41615 | 1.41349 | 1.4108
x1 = 0.8998 | 1.42015 | 1.41747 | 1.4148 | 1.41213 | 1.40945
x1 = 0.95 | 1.41882 | 1.41617 | 1.41352 | 1.41087 | 1.40819
x1 = 1 | 1.41758 | 1.41493 | 1.41227 | 1.40963 | 1.40695
